The source made the active and inactive calls. The calls are words filed in the database; no cut-off is given here.
Tests used:
Mus musculus [1] = experiment: Toxicity in mouse P388 cells allografted BDF1 mouse assessed as body weight difference at 100 mg/kg administered 24 hrs post challenge relative to control; type: organism-based; set-up: dose 100 mg/kg; settings: in vivo
P388 [2] = experiment: Antitumor activity against mouse P388 cells allografted in BDF1 mouse assessed as mouse survival at 100 mg/kg administered 24 hrs post challenge relative to control; type: functional, organism-based; set-up: dose 100 mg/kg
P388 [3] = experiment: Antitumor activity against mouse P388 cells allografted in BDF1 mouse assessed as increase in survival time at 400 mg/kg administered 24 hrs post challenge relative to control; type: functional
P388 [4] = experiment: Antitumor activity against mouse P388 cells allografted in BDF1 mouse assessed as mouse survival at 400 mg/kg administered 24 hrs post challenge relative to control; type: functional, organism-based; set-up: dose 400 mg/kg
P388 [5] = experiment: Antitumor activity against mouse P388 cells allografted in BDF1 mouse assessed as mouse survival at 200 mg/kg administered 24 hrs post challenge relative to control; type: functional, organism-based; set-up: dose 200 mg/kg
Mus musculus [6] = experiment: Toxicity in mouse P388 cells allografted BDF1 mouse assessed as body weight difference at 200 mg/kg administered 24 hrs post challenge relative to control; type: organism-based; set-up: dose 200 mg/kg; settings: in vivo
Mus musculus [7] = experiment: Toxicity in mouse P388 cells allografted BDF1 mouse assessed as body weight difference at 400 mg/kg administered 24 hrs post challenge relative to control; type: organism-based; set-up: dose 400 mg/kg; settings: in vivo
P388 [8] = experiment: Antitumor activity against mouse P388 cells allografted in BDF1 mouse assessed as increase in survival time at 100 mg/kg administered 24 hrs post challenge relative to control; type: functional
P388 [9] = experiment: Antitumor activity against mouse P388 cells allografted in BDF1 mouse assessed as increase in survival time at 200 mg/kg administered 24 hrs post challenge relative to control; type: functional
P388 [10] = experiment: Antitumor activity against mouse P388 cells allografted in BDF1 mouse assessed as mouse survival at 0.78 mg/kg administered 24 hrs post challenge relative to control; type: functional, organism-based; set-up: dose 0.78 mg/kg
P388 [11] = experiment: Antitumor activity against mouse P388 cells allografted in BDF1 mouse assessed as increase in survival time at 6.25 mg/kg administered 24 hrs post challenge relative to control; type: functional
B16 [12] = experiment: Antitumor activity against mouse B16 cells allografted in BDF1 mouse assessed as increase in survival time at 16 mg/kg administered 24 hrs post challenge relative to control; type: functional
P388 [13] = experiment: Antitumor activity against mouse P388 cells allografted in BDF1 mouse assessed as mouse survival at 1.56 mg/kg administered 24 hrs post challenge relative to control; type: functional, organism-based; set-up: dose 1.56 mg/kg
Mus musculus [14] = experiment: Toxicity in mouse P388 cells allografted BDF1 mouse assessed as body weight difference at 3.13 mg/kg administered 24 hrs post challenge relative to control; type: organism-based; set-up: dose 3.13 mg/kg; settings: in vivo
Mus musculus [15] = experiment: Toxicity in mouse P388 cells allografted BDF1 mouse assessed as body weight difference at 6.25 mg/kg administered 24 hrs post challenge relative to control; type: organism-based; set-up: dose 6.25 mg/kg; settings: in vivo
P388 [16] = experiment: Antitumor activity against mouse P388 cells allografted in BDF1 mouse assessed as mouse survival at 3.13 mg/kg administered 24 hrs post challenge relative to control; type: functional, organism-based; set-up: dose 3.13 mg/kg
Mus musculus [17] = experiment: Toxicity in mouse P388 cells allografted BDF1 mouse assessed as body weight difference at 1.56 mg/kg administered 24 hrs post challenge relative to control; type: organism-based; set-up: dose 1.56 mg/kg; settings: in vivo
P388 [18] = experiment: Antitumor activity against mouse P388 cells allografted in BDF1 mouse assessed as increase in survival time at 0.78 mg/kg administered 24 hrs post challenge relative to control; type: functional
B16 [19] = experiment: Antitumor activity against mouse B16 cells allografted in BDF1 mouse assessed as increase in survival time at 8 mg/kg administered 24 hrs post challenge relative to control; type: functional
Mus musculus [20] = experiment: Toxicity in mouse P388 cells allografted BDF1 mouse assessed as body weight difference at 0.78 mg/kg administered 24 hrs post challenge relative to control; type: organism-based; set-up: dose 0.78 mg/kg; settings: in vivo
P388 [21] = experiment: Antitumor activity against mouse P388 cells allografted in BDF1 mouse assessed as mouse survival at 25 mg/kg administered 24 hrs post challenge relative to control; type: functional, organism-based; set-up: dose 25 mg/kg
P388 [22] = experiment: Antitumor activity against mouse P388 cells allografted in BDF1 mouse assessed as increase in survival time at 1.56 mg/kg administered 24 hrs post challenge relative to control; type: functional
Mus musculus [23] = experiment: Toxicity in mouse P388 cells allografted BDF1 mouse assessed as body weight difference at 25 mg/kg administered 24 hrs post challenge relative to control; type: organism-based; set-up: dose 25 mg/kg; settings: in vivo
P388 [24] = experiment: Antitumor activity against mouse P388 cells allografted in BDF1 mouse assessed as mouse survival at 6.25 mg/kg administered 24 hrs post challenge relative to control; type: functional, organism-based; set-up: dose 6.25 mg/kg
B16 [25] = experiment: Antitumor activity against mouse B16 cells allografted in BDF1 mouse assessed as increase in survival time at 4 mg/kg administered 24 hrs post challenge relative to control; type: functional
P388 [26] = experiment: Antitumor activity against mouse P388 cells allografted in BDF1 mouse assessed as increase in survival time at 12.5 mg/kg administered 24 hrs post challenge relative to control; type: functional
P388 [27] = experiment: Antitumor activity against mouse P388 cells allografted in BDF1 mouse assessed as increase in survival time at 25 mg/kg administered 24 hrs post challenge relative to control; type: functional
P388 [28] = experiment: Antitumor activity against mouse P388 cells allografted in BDF1 mouse assessed as increase in survival time at 3.13 mg/kg administered 24 hrs post challenge relative to control; type: functional
Mus musculus [29] = experiment: Toxicity in mouse P388 cells allografted BDF1 mouse assessed as body weight difference at 12.5 mg/kg administered 24 hrs post challenge relative to control; type: organism-based; set-up: dose 12.5 mg/kg; settings: in vivo
P388 [30] = experiment: Antitumor activity against mouse P388 cells allografted in BDF1 mouse assessed as mouse survival at 12.5 mg/kg administered 24 hrs post challenge relative to control; type: functional, organism-based; set-up: dose 12.5 mg/kg

SMILES: COc1ccc(CCNc2ccc(NCCc3ccc(OC)c(OC)c3)c3c2C(=O)c2ccccc2C3=O)cc1OC
- Activity (Mus musculus [1]): -1.7 g
- Activity (P388 [2]): Active
- T/C (P388 [3]): 91%
- Activity (P388 [4]): Active
- Activity (P388 [5]): Active
- Activity (Mus musculus [6]): -3.2 g
- Activity (Mus musculus [7]): -2.9 g
- T/C (P388 [8]): 86%
- T/C (P388 [9]): 101%

SMILES: NCCNc1ccc(NCCN)c2c1C(=O)c1ccccc1C2=O
- Activity (P388 [10]): Active
- T/C (P388 [11]): 159%
- T/C (B16 [12]): 281%
- Activity (P388 [13]): Active
- Activity (Mus musculus [14]): -0.9 g
- Activity (Mus musculus [15]): -1.1 g
- Activity (P388 [16]): Active
- Activity (Mus musculus [17]): -1.6 g
- T/C (P388 [18]): 150%
- T/C (B16 [19]): 280%
- Activity (Mus musculus [20]): -1.3 g
- Activity (P388 [21]): Active
- T/C (P388 [22]): 137%
- Activity (Mus musculus [23]): -2.6 g
- Activity (P388 [24]): Active
- T/C (B16 [25]): 280%
- T/C (P388 [26]): 174%
- T/C (P388 [27]): 215%
- T/C (P388 [28]): 107%
- Activity (Mus musculus [29]): -1.1 g
- Activity (P388 [30]): Active
